According to patent US20090220599A1, “Antifungal formulation and manufacturing method thereof” (Industrial Technology Research Institute, priority 2003, published 2009):

Columns and labels:
[1] = background statement; cited from earlier work
[2] = UV-Vis absorbance ratio of sterol/AmB (affinity comparison); format: binding; conditions: for affinity ordering of these three sterols to AmB: FIG. 1, molar ratios from 1:1 to 20:1
Procedure: (1) Adding 23.1 mg Amphotericin B (AmB) to 5 ml dimethyl sulfoxide (DMSO), and then adding in 495 ml ionized water to prepare a mixture, and taking 10 ml volume out of the mixture; diluting the 10 volume with 30 ml 1% dimethyl sulfoxide (DMSO) solution to prepare 12.5 μM Amphotericin B (AmB) aqueous solution. (2) Adding 13 g n-propanol to 187 ml ionized water to prepare 6.5% n-propanol aqueous solution. (3) Adding 28.9 mg cholesterol to 19.5 g n-propanol, shaking them to completely dissolve cholesterol in n-propanol, and then adding in 280.5 gram ionized water to prepare 250 μM cholesterol aqueous solution. (4) Adding […] stigmasterol to 19.5 g n-propanol, shaking them to completely dissolve stigmasterol in n-propanol, and then adding in 280.5 gram ionized water to prepare 250 μM stigmasterol aqueous solution. (5) Adding 29.7 mg ergosterol to 19.5 g n-propanol, shaking them to completely dissolve ergosterol in n-propanol, and then adding in 280.5 gram ionized water to prepare 250 μM ergosterol aqueous solution. (6) Mixing 10 ml 12.5 μM AmB aqueous solution with 10 ml 250 μM cholesterol aqueous solution. The molar ratio of AmB/cholesterol is 1/20. The UV-Vis absorbance ratio A415nm/A350nm of AmB/cholesterol is 0.61 (scanning from 300 nm to 450 nm). (7) Mixing 10 ml 12.5 μM AmB aqueous solution, 5 ml 6.5% n-propanol aqueous solution and 5 ml 250 μM cholesterol aqueous solution. The molar ratio of AmB/cholesterol is 1/10. The UV-Vis absorbance ratio A415nm/A350nm of AmB/cholesterol is 0.59. (8) Mixing 10 ml 12.5 μM AmB aqueous solution, 7.5 ml 6.5% n-propanol aqueous solution and 2.5 ml 250 μM cholesterol aqueous solution. The molar ratio of AmB/cholesterol is 1/5. The UV-Vis absorbance ratio A415nm/A350nm of AmB/cholesterol is 0.60. (9) Mixing 10 ml 12.5 μM AmB aqueous solution, 9.5 ml 6.5% n-propanol aqueous solution and 0.5 ml 250 μM cholesterol aqueous solution. The molar ratio of AmB/cholesterol is 1/1. The UV-Vis absorbance ratio A415nm/A350nm of AmB/cholesterol is 0.49. (10) Measuring absorbance ratio of stigmasterol/AmB and ergosterol/AmB by the procedures with the same, the result is shown in FIG. 1.
(§1) Using UV-Vis spectroscopy to measure UV-Vis absorbance ratios of cholesterol-PEG600, stigmasterol-PEG600 and ergosterol-PEG600 prepared in Example I to AmB and UV-Vis absorbance ratios of cholesterol, stigmasterol and ergosterol to AmB. The results are as shown in FIG. 1 and FIG. 2, in which FIG. 1 is a curve diagram of A415nm/A350nm vs. sterol/AmB and FIG. 2 is a curve diagram of A415nm/A350nm vs. sterol-PEG600/AmB.

[3] = UV-Vis absorbance ratio of sterol-PEG/AmB (affinity comparison); format: binding; conditions: for affinity ordering of sterol-PEG to AmB / variation of the UV-Vis absorbance ratios A415nm/A350nm: FIG. 2; for variation of the UV-Vis absorbance ratios A415nm/A350nm: for any mixing molar ratios with AmB
Procedure: (1) Adding 23.1 mg AmB aqueous solution to 5 ml dimethyl sulfoxide (DMSO), and then adding in 495 ml ionized water to prepare a mixture. Taking 10 ml volume out of the mixture, and diluting the 10 ml volume with 30 ml 1% dimethyl sulfoxide (DMSO) aqueous solution to prepare 12.5 μM AmB aqueous solution. (2) Adding 13 g n-propanol to 187 ml ionized water to prepare 6.5% n-propanol aqueous solution. (3) Adding 24.4 mg cholesterol-PEG600 to 6.5 g n-propanol, shaking them to completely dissolve cholesterol-PEG600 in n-propanol, and then adding in 93.5 g ionized water to prepare 250 μM cholesterol-PEG600 aqueous solution. (4) Adding […] stigmasterol-PEG600 to 6.5 g n-propanol, shaking them to completely dissolve stigmasterol-PEG600 in n-propanol, and then adding in 93.5 g ionized water to prepare 250 μM stigmasterol-PEG600 aqueous solution. (5) Adding 24.6 mg ergosterol-PEG600 to 6.5 g n-propanol, shaking them to completely dissolve ergosterol-PEG600 in n-propanol, and then adding in 93.5 g ionized water to prepare 250 μM ergosterol-PEG600 aqueous solution. (6) Mixing 10 ml 12.5 μM AmB and 10 ml 250 μM cholesterol-PEG600, the molar ratio of AmB/cholesterol-PEG600 is 1/20. The UV-Vis absorbance ratio A415nm/A350nm of AmB/cholesterol is 0.40 (scanning from 300 nm to 450 nm). (7) Mixing 10 ml 12.5 μM AmB, 5 ml 6.5% n-propanol and 5 ml 250 μM cholesterol-PEG600. The molar ratio of AmB/cholesterol-PEG600 is 1/10. The UV-Vis absorbance ratio of A415nm/A350nm of AmB/cholesterol-PEG600 is 0.44. (8) Mixing 10 ml 12.5 μM AmB, 7.5 ml 6.5% n-propanol and 2.5 ml 250 μM cholesterol-PEG600. The molar ratio of AmB/cholesterol-PEG600 is 1/5. The UV-Vis absorbance ratio of A415nm/A350nm of AmB/cholesterol-PEG600 is 0.48. (9) Mixing 10 ml 12.5 μM AmB, 9.5 ml 6.5% n-propanol and 0.5 ml 250 μM cholesterol-PEG600. The molar ratio of AmB/cholesterol-PEG600 is 1/1. The UV-Vis absorbance ratio of A415nm/A350nm of AmB/cholesterol-PEG600 is 0.48. (10) Measuring absorbance ratio of stigmasterol-PEG600/AmB and ergosterol-PEG600/AmB by the procedures with the same, the result is shown in FIG. 2.
as §1

Compound	affinity ordering of these three sterols to AmB [2]	affinity ordering of sterol-PEG to AmB [3]	variation of the UV-Vis absorbance ratios A415nm/A350nm [3]	other results
C[C@@H]1[C@H](O)[C@@H](C)/C=C/C=C/C=C/C=C/C=C/C=C/C=C/[C@H](O[C@@H]2O[C@H](C)[C@@H](O)[C@H](N)[C@@H]2O)C[C@@H]2O[C@](O)(C[C@@H](O)C[C@@H](O)[C@H](O)CC[C@@H](O)C[C@@H](O)CC(=O)O[C@H]1C)C[C@H](O)[C@H]2C(=O)O [Amphotericin B]				affinity for ergosterol of fungal cells compared with that for cholesterols of mammal [1]: ten times better
CC(C)CCC[C@@H](C)[C@H]1CC[C@H]2[C@@H]3CC=C4C[C@@H](O)CC[C@]4(C)[C@H]3CC[C@]12C [cholesterol]	cholesterol<stigmasterol<ergosterol			UV-Vis absorbance ratio A415nm/A350nm ([2]; molar ratio of AmB/cholesterol 1/1): 0.49; UV-Vis absorbance ratio A415nm/A350nm ([2]; molar ratio of AmB/cholesterol 1/5): 0.60; UV-Vis absorbance ratio A415nm/A350nm ([2]; molar ratio of AmB/cholesterol 1/10): 0.59; UV-Vis absorbance ratio A415nm/A350nm ([2]; molar ratio of AmB/cholesterol 1/20, scanning from 300 nm to 450 nm): 0.61; UV-Vis absorbance ratio A415nm/A350nm ([3]; molar ratio of AmB/cholesterol-PEG600 1/20, scanning from 300 nm to 450 nm): 0.40
CC(C)[C@@H](C)/C=C/[C@@H](C)[C@H]1CC[C@H]2C3=CC=C4C[C@@H](O)CC[C@]4(C)[C@H]3CC[C@]12C [ergosterol]	cholesterol<stigmasterol<ergosterol			
CC[C@H](/C=C/[C@@H](C)[C@H]1CC[C@H]2[C@@H]3CC=C4C[C@@H](O)CC[C@]4(C)[C@H]3CC[C@]12C)C(C)C [stigmasterol]	cholesterol<stigmasterol<ergosterol			
cholesterol-PEG600		ergosterol-PEG600>stigmasterol-PEG600>cholesterol-PEG600	insignificant	UV-Vis absorbance ratio A415nm/A350nm ([3]; molar ratio of AmB/cholesterol-PEG600 1/1): 0.48; UV-Vis absorbance ratio A415nm/A350nm ([3]; molar ratio of AmB/cholesterol-PEG600 1/5): 0.48; UV-Vis absorbance ratio A415nm/A350nm ([3]; molar ratio of AmB/cholesterol-PEG600 1/10): 0.44
ergosterol-PEG600		ergosterol-PEG600>stigmasterol-PEG600>cholesterol-PEG600	insignificant	
stigmasterol-PEG600		ergosterol-PEG600>stigmasterol-PEG600>cholesterol-PEG600	insignificant	
